These results are taken from patent publication US10307355B2, “N-aralkylcarbonyldiamine compounds and personal care compositions comprising the same” (Conopco, Inc., priority 2015, dated 2019).

SMILES strings stand for the structures. pIC50: −log10 of the molar value.

The assay addresses T1, human M3 receptor (Homo sapiens, UniProt P20309).
T1 construct: expressed in transfected cells; host or cells: CHO cells (membrane suspension)
Briefly: Muscarinic 3 receptor binding assay (3H-scopolamine displacement, CHO cell membranes). The settings on record: inhibition of 3H-scopolamine binding to CHO cell suspension expressing the human M3 receptor. As to the method:
The muscarinic 3 receptor binding assay was adapted from Perkin Elmer. […] Atropine (Sigma-Aldrich, St. Louis, Mo.) was used as a positive control. […] The binding reactions were terminated by filtering through the GFC plates and washing & filtering with ice-cold phosphate saline buffer (5×100 μL). Once the filters were dry, microscint scintillation cocktail (100 μL) was added to each well, allowed to sit for 20 min and the plates analyzed using a TopCount scintillation counter. […] Curve fitting of % inhibition versus concentration using Excell software allowed determination of IC50 values for test compounds.

T1 sequence (P20309 whole entry): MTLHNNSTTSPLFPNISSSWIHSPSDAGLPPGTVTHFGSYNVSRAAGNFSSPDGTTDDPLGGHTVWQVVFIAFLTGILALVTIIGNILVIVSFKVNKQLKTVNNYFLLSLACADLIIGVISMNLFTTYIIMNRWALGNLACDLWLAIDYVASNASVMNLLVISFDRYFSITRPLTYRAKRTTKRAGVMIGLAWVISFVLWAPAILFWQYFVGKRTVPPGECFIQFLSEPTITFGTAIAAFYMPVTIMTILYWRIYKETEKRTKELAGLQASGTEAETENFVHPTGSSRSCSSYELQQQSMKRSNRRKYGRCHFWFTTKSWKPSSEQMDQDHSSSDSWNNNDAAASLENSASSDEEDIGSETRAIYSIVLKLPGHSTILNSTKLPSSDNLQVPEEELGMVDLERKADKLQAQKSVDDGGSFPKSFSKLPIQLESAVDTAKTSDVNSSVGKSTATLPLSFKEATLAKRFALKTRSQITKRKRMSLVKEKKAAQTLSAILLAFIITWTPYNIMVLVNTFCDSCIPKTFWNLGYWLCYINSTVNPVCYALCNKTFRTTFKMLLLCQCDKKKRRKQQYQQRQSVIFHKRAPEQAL

With `CN(C)CCN(C)C(=O)C(c1ccccc1)C1CCCC1` (stereo not shown) [Compound 3c], the pIC50 is 5.48.
